The source of these data is ChEMBL document CHEMBL4483862, “Open-source discovery of chemical leads for next-generation chemoprotective antimalarials” (2018).

The test concerns Plasmodium berghei. Kind of test: Luciferase/luciferin-expressing antifolate-resistant parasites were used to infect a culture of HepG2 cells that were pre-incubated with compounds. Infected hepatocytes emit light due to the luciferase reaction. Assay results are presented as the percent inhibition of light emission compared to control. […]. The format is functional. The settings on record: sporozoite; for IC90: read-out: LUCIFERASE INFECTION ASSAY - IC90.

As a reminder, the IC50 is the concentration that inhibits the measured activity by half. A word on the IC90: it is the concentration needed for an effect of 90%. Turning to `Cc1ccc(-n2c(C)cc(C(=O)COc3c(CO)cc(F)cc3CO)c2C)cc1C`, the IC90 was above 10 µM. Besides, for the setting “PBLUC_HILL_SLOPE 1.7, PBLUC_R_SQUARED 0.588, read-out: LUCIFERASE INFECTION ASSAY - IC50”, the IC50 stood at 6.56 µM.

For the compound `CCOC(=O)c1c(C)[nH]c(C(=O)CSc2nnc(C3CC3)n2N)c1C`, the IC90 worked out at 0.847 µM. Further, where the note is “PBLUC_HILL_SLOPE 1.71, PBLUC_R_SQUARED 0.964, read-out: LUCIFERASE INFECTION ASSAY - IC50”, the IC50 was found to be 0.235 µM.

As to `O=C1CCN(Cc2ccc(Cl)cc2)N1`, the IC90 was above 15.7 µM. In addition, the IC50 (PBLUC_HILL_SLOPE 1.7, PBLUC_R_SQUARED 0.276, read-out: LUCIFERASE INFECTION ASSAY - IC50) worked out at 14.1 µM.

Turning to `Cc1[nH]c2ccccc2c1C(=O)C(C)Sc1ccc2c(c1)OCCCO2` (configuration not stated), the IC90 is above 10 µM. In addition, for the setting “PBLUC_HILL_SLOPE 1.73, PBLUC_R_SQUARED 0.284, read-out: LUCIFERASE INFECTION ASSAY - IC50”, the IC50 is 3.18 µM.

As for `Cc1cc(C(=O)COc2cccnc2[N+](=O)[O-])c(C)n1-c1ccc2c(c1)OCO2`, the IC90 is above 10 µM. In addition, under “PBLUC_HILL_SLOPE 1.7, PBLUC_R_SQUARED 0.197, read-out: LUCIFERASE INFECTION ASSAY - IC50”, the IC50 came out at 8.75 µM.

For `COc1ccc(C(N)=O)c(OCCOc2ccc(C(C)C)c(C)c2)c1`, the IC90 was above 10 µM. The concentration for half-maximal inhibition (IC50) (PBLUC_HILL_SLOPE 1.7, PBLUC_R_SQUARED 0.184, read-out: LUCIFERASE INFECTION ASSAY - IC50) was found to be 4.61 µM.

Regarding `Cc1cc(N2CCN(CCO)CC2)n2ncc(-c3ccc(F)cc3)c2n1`, the IC90 worked out at 7.96 µM. Besides, the IC50 (PBLUC_HILL_SLOPE 1.69, PBLUC_R_SQUARED 0.874, read-out: LUCIFERASE INFECTION ASSAY - IC50) stood at 2.17 µM.

As for `FC(F)(F)c1nc(N2CCN(c3ccncc3)CC2)c2ccccc2n1`, the IC90 was above 10 µM. Besides, the IC50 (PBLUC_HILL_SLOPE 1.73, PBLUC_R_SQUARED 0.515, read-out: LUCIFERASE INFECTION ASSAY - IC50) came to 4.07 µM.

`Cc1c(C(=O)Nc2nc(CN3CC(C)CC(C)C3)cs2)[nH]c2c1C(=O)CC(C)(C)C2` (configuration not stated): the IC90 came to 9.99 µM. Moreover, the IC50 (PBLUC_HILL_SLOPE 1.7, PBLUC_R_SQUARED 0.746, read-out: LUCIFERASE INFECTION ASSAY - IC50) was 2.74 µM.

On to `CC(CC(=O)Nc1ccc(Cl)cc1)NCC(C)(C)N1CCOCC1` (configuration not stated), for which the IC90 was above 10 µM. In addition, for the setting “PBLUC_HILL_SLOPE 1.7, PBLUC_R_SQUARED 0.0143, read-out: LUCIFERASE INFECTION ASSAY - IC50”, the IC50 stood at 4.7 µM.

Regarding `N#Cc1ccsc1NC(=O)CN1CCN(CC(=O)Nc2ccc(Cl)c(C(F)(F)F)c2)CC1`, the IC90 was above 10 µM. Moreover, the IC50 (PBLUC_HILL_SLOPE 1.73, PBLUC_R_SQUARED 0.28, read-out: LUCIFERASE INFECTION ASSAY - IC50) turned out to be 5.03 µM.

As for `O=C(O/N=C(\Nc1ccc(OC(F)(F)F)cc1)c1c(Cl)cccc1Cl)c1ccccc1C(F)(F)F`, the IC90 is above 6.14 µM. Further, the IC50 (PBLUC_HILL_SLOPE 1.69, PBLUC_R_SQUARED 0.564, read-out: LUCIFERASE INFECTION ASSAY - IC50) is above 6.14 µM.

As to `CC(NC(=S)N/N=C/c1cc(Cl)cc(Cl)c1O)c1ccccc1` (configuration not stated), the IC90 stood at 8.46 µM. Moreover, the IC50 (PBLUC_HILL_SLOPE 1.69, PBLUC_R_SQUARED 0.56, read-out: LUCIFERASE INFECTION ASSAY - IC50) was 2.31 µM.

Take `CC(NCc1ccc(N(C)CCO)cc1)c1ccc(-c2ccccc2)cc1` (configuration not stated): the IC90 is above 10 µM. Also, the IC50 (PBLUC_HILL_SLOPE 1.73, PBLUC_R_SQUARED 0.432, read-out: LUCIFERASE INFECTION ASSAY - IC50) came out at 8 µM.

`CCN(CC)CCNc1cc(-c2cccs2)nc2ccccc12`: the IC90 was above 10.1 µM. In addition, the IC50 (PBLUC_HILL_SLOPE 1.7, PBLUC_R_SQUARED 0.474, read-out: LUCIFERASE INFECTION ASSAY - IC50) was 3.96 µM.

Consider `O=[N+]([O-])c1cc(/C=N/O)ccc1Oc1ccc(Cl)cc1`, for which the IC90 is above 11.3 µM. Under “PBLUC_HILL_SLOPE 1.72, PBLUC_R_SQUARED 0.416, read-out: LUCIFERASE INFECTION ASSAY - IC50”, the IC50 is 6.18 µM.

With `CN(CC(=O)NC1CC1)C(=O)CNc1ccccc1Oc1ccccc1`, the IC90 was found to be 4.68 µM. For the same compound, for the setting “PBLUC_HILL_SLOPE 1.7, PBLUC_R_SQUARED 0.39, read-out: LUCIFERASE INFECTION ASSAY - IC50”, the IC50 came to 1.29 µM.

For `CS(=O)(=O)Nc1cccc(-c2cn3c(-c4ccc5c(c4)OCO5)cnc3cn2)c1`, the IC90 is above 8.08 µM. For the same compound, the IC50 (PBLUC_HILL_SLOPE 1.71, PBLUC_R_SQUARED 0.507, read-out: LUCIFERASE INFECTION ASSAY - IC50) was 6.08 µM.

For `CCC1CCCCN1CC(O)COC(c1ccc(Cl)cc1)c1ccc(Cl)cc1` (configuration not stated), the IC90 was above 10 µM. Also, the IC50 (PBLUC_HILL_SLOPE 1.73, PBLUC_R_SQUARED 0.487, read-out: LUCIFERASE INFECTION ASSAY - IC50) was determined as 5.6 µM.

With `Cc1[nH]ncc1CCCNc1nc(-c2ccsc2)nc2ccccc12`, the IC90 is above 10 µM. The IC50 (PBLUC_HILL_SLOPE 1.72, 3.12, PBLUC_R_SQUARED 0.159, 0.360, read-out: LUCIFERASE INFECTION ASSAY - IC50) turned out to be 5.35 µM.

For `O=C(Nc1ncccc1O)c1ccc(-n2cnc3ccccc32)cc1`, the IC90 was determined as 6.03 µM. Also, the IC50 (PBLUC_HILL_SLOPE 1.70, 2.04, PBLUC_R_SQUARED 0.693, 0.681, read-out: LUCIFERASE INFECTION ASSAY - IC50) is 1.8 µM.

`CN(C)Cc1ccccc1CNC(=O)Nc1ccc(Cl)c(Cl)c1`: the IC90 was above 2 µM. Moreover, for the setting “PBLUC_HILL_SLOPE 1.7, PBLUC_R_SQUARED 0.0619, read-out: LUCIFERASE INFECTION ASSAY - IC50”, the IC50 was 0.986 µM.

Consider `Cc1sc2nc(-c3cccnc3)nc(NCCc3ccc(S(N)(=O)=O)cc3)c2c1C`, for which the IC90 was above 10 µM. Further, under “PBLUC_HILL_SLOPE 1.71, PBLUC_R_SQUARED 0.31, read-out: LUCIFERASE INFECTION ASSAY - IC50”, the IC50 came out at 7.09 µM.

For `O=C(Nc1ncccc1O)c1ccc(CN2C(=O)c3ccccc3S2(=O)=O)cc1`, the IC90 is above 10 µM. Under “PBLUC_HILL_SLOPE 1.72, 0.775, PBLUC_R_SQUARED 0.614, 0.500, read-out: LUCIFERASE INFECTION ASSAY - IC50”, the IC50 came to 4.22 µM.

`CCCc1nc2ccccc2n1CC(=O)N1N=C(c2ccc(Cl)cc2)CC1c1ccco1` (configuration not stated): the IC90 was above 10 µM. For the same compound, the IC50 (PBLUC_HILL_SLOPE 1.73, PBLUC_R_SQUARED 0.265, read-out: LUCIFERASE INFECTION ASSAY - IC50) is above 10 µM.

For `Cc1ccccc1C(=O)OCC(=O)c1cc(C)n(Cc2ccco2)c1C`, the IC90 came out at 3.07 µM. Also, under “PBLUC_HILL_SLOPE 1.7, PBLUC_R_SQUARED 0.868, read-out: LUCIFERASE INFECTION ASSAY - IC50”, the IC50 worked out at 0.843 µM.

On to `COc1ccccc1/C=C(\C#N)c1ccc(C)cc1`, for which the IC90 is above 13.2 µM. In addition, under “PBLUC_HILL_SLOPE 1.71, PBLUC_R_SQUARED 0.0423, read-out: LUCIFERASE INFECTION ASSAY - IC50”, the IC50 stood at 10.6 µM.

Take `C/C(=N\OCc1ccccc1)c1cc(-c2ccccc2)c(C(F)(F)F)s1`: the IC90 is above 8.79 µM. Moreover, the IC50 (PBLUC_HILL_SLOPE 1.7, PBLUC_R_SQUARED 0.604, read-out: LUCIFERASE INFECTION ASSAY - IC50) was found to be 4.91 µM.

Take `COCCNc1cc(C(C)C)nc2c(-c3ccccc3)cnn12`: the IC90 is above 10.6 µM. Further, where the note is “PBLUC_HILL_SLOPE 1.73, PBLUC_R_SQUARED 0.539, read-out: LUCIFERASE INFECTION ASSAY - IC50”, the IC50 is 3.04 µM.

As to `CN(Cc1ccccc1Cl)C(=O)c1ccc(NC(=O)c2ccco2)cc1`, the IC90 was above 10 µM. Also, the IC50 (PBLUC_HILL_SLOPE 1.69, PBLUC_R_SQUARED 0.585, read-out: LUCIFERASE INFECTION ASSAY - IC50) was determined as 7.96 µM.

For `O=C(Nc1ccnn1Cc1ccccc1)c1ccc(C(=O)c2ccccc2)cc1`, the IC90 is above 10 µM. Further, the IC50 (PBLUC_HILL_SLOPE 1.71, PBLUC_R_SQUARED 0.158, read-out: LUCIFERASE INFECTION ASSAY - IC50) was 5.74 µM.

Consider `Cn1cc(-c2cnc3ccc(Cc4ccc(F)cc4)nn23)cn1`, for which the IC90 was above 10 µM. The IC50 (PBLUC_HILL_SLOPE 1.72, PBLUC_R_SQUARED 0.782, read-out: LUCIFERASE INFECTION ASSAY - IC50) was 4.99 µM.

Take `CC12CCC(C(=O)N3CCN(c4cccc(Cl)c4)CC3)(OC1=O)C2(C)C` (configuration not stated): the IC90 is above 8.76 µM. In addition, the IC50 (PBLUC_HILL_SLOPE 1.72, PBLUC_R_SQUARED 0.0862, read-out: LUCIFERASE INFECTION ASSAY - IC50) was above 8.76 µM.

For the compound `CN(CC(=O)Nc1nnc(-c2ccccc2)o1)Cc1ccccc1C(F)(F)F`, the IC90 amounted to 3.69 µM. In addition, the half-inhibitory concentration (IC50) (PBLUC_HILL_SLOPE 1.69E+03, PBLUC_R_SQUARED 0.413, read-out: LUCIFERASE INFECTION ASSAY - IC50) amounted to 3.69 µM.

With `COc1ccc(C(CNC(=O)c2ccc(Oc3ccc(Cl)cc3[N+](=O)[O-])cc2)N2CCCC2)cc1` (configuration not stated), the IC90 is above 10 µM. Further, the IC50 (PBLUC_HILL_SLOPE 1.72, PBLUC_R_SQUARED 0.19, read-out: LUCIFERASE INFECTION ASSAY - IC50) is 6.08 µM.

As for `FC(F)(F)c1cccc(Nc2nnnc3ccccc23)c1`, the IC90 came out at 3.71 µM. Also, the IC50 (PBLUC_HILL_SLOPE 1.72, PBLUC_R_SQUARED 0.746, read-out: LUCIFERASE INFECTION ASSAY - IC50) stood at 1.03 µM.
